# What was measured:
# [1] = tested on: ASD animal models; conditions: VRK3-deficient mice and D2-deficient mice with early-life stress; cited from earlier work
# [2] = tested on: TrkB signaling pathway; test: Immunoblotting of TrkB signaling in hippocampal neurons treated with NLGN1 siRNA; assay type: cell-based, mouse; conditions: NLGN1 knockdown in MDGA2-deficient hippocampal neurons, n = 4
# Source text: NLGN1-targeting siRNA and scrambled control siRNA were synthesized by GenePharma (Shanghai, China). The sequences were as follows: NLGN1 siRNA sense: 5′-[…]-[…]-3′, NLGN1 siRNA antisense: 5′-[…]-3′. Scrambled control siRNA sense: 5′-[…]-3′, Scrambled control siRNA antisense: 5′-[…]-3′
# Plasmids were transfected into HEK293T, SH-SY5Y, and HeLa cells using Turbofect transfection reagent (ThermoFisher), following the manufacturer’s instructions. Primary neurons were transfected with plasmids using Lipofectamine LTX (ThermoFisher, Cat# 15338100) or EntransterTM-H4000 transfection reagent (Engreen Bio-system, Cat# 4000-6), and with siRNAs using Lipofectamine RNAiMAX (ThermoFisher, Cat# 13778100), following manufacturers’ protocols. The transfection efficiency of both Lipofectamine LTX and EntransterTM-H4000 exceeded 50%. […]
# Supplementary file pbio.3003047.s003.tif: S3 Fig MDGA2 competes with brain-derived neurotrophic factor (BDNF) for tyrosine kinase B (TrkB) binding. […] The pTyr levels were quantified by densitometry, normalized to total TrkB levels, and then compared to those of WT littermates. n = 4 per group. […] Immunoprecipitated BDNF levels in Het samples were quantified by densitometry, normalized to input levels, and compared to WT controls (set to one arbitrary units). n = 4 per group. […]
# [3] = tested on: TrkB; test: Biotin pull-down of TrkB after intrahippocampal injection of biotin-peptides; assay type: in vivo; conditions: 1 μg biotin-conjugated peptide bilaterally into mouse hippocampus, 24 h
compound,measurement,setting,value
"O=c1cc(-c2ccccc2)oc2c(O)c(O)ccc12 [7.8-dihydroxyflavone, reference compound]",social deficits and repetitive self-grooming behavior,[1],rescued both social deficits and repetitive self-grooming behavior
"NLGN1 siRNA: NLGN1-targeting siRNA, sense 5′-CCUGUGUGGU-UCACUAAUATT-3′ (sense CCUGUGUGGUUCACUAAUATT; antisense UAUUAGUGAACCACACAGGTT; chemistry not given here)",effect on TrkB signaling pathway,[2],treated with either vehicle or NLGN1 siRNA
"NADRSGSKEGFYMYIETSRPRLEGE [MDGA2-P1, peptide of MDGA2 MAM domain, aa 787–811, biotin-labeled]",binding to TrkB in vivo (biotin pull-down),[3],"not P1, bound to TrkB in vivo"
